Laboratory results: patent US20260070945A1, “MACROCYCLIC IMMUNOMODULATORS” (Bristol-Myers Squibb Company, priority 2022, published 2026)
*1 amine or outer side, *2 acyl side, *3 side chain or, on linkers, in order; H or OH if unused. Where a SMILES comes first, the peptide text is derived from it. Bridges are numbered along the chain shown (N, C = ends). [ ]: non-standard residue; d: D form. The star is where a group is joined. ξ: configuration not given here. Phe(3-CF3) = N[C@@H](Cc1cccc(C(F)(F)F)c1)C(=O)O; Ala(morpholin-4-yl) = N[C@@H](CN1CCOCC1)C(=O)O; Phe(4-COOH) = N[C@@H](Cc1ccc(C(=O)O)cc1)C(=O)O; Bip = N[C@@H](Cc1ccc(-c2ccccc2)cc1)C(=O)O; Phe(3-CN) = N#Cc1cccc(C[C@H](N)C(=O)O)c1; NH(CH2)14COOH = O=C(O)CCCCCCCCCCCCCCN*; Phe(3-Me) = Cc1cccc(C[C@H](N)C(=O)O)c1; γGlu = O=C(O)[C@H](CCC(=O)[*:2])N[*:1]; NH(CH2)12COOH = O=C(O)CCCCCCCCCCCCN*; Val(3-OH) = CC(C)(O)[C@H](N)C(=O)O; 3Pal = N[C@@H](Cc1cccnc1)C(=O)O; Cha = N[C@@H](CC1CCCCC1)C(=O)O; Cit = NC(=O)NCCC[C@H](N)C(=O)O; Thr(3ξ) = CC(O)[C@H](N)C(=O)O; Carboxymethyl = O=C(O)C*; NMeA = CN[C@@H](C)C(=O)O; Orn = NCCC[C@H](N)C(=O)O; Aun = NCCCCCCCCCCC(=O)O; Dab = NCC[C@H](N)C(=O)O; AEEA = NCCOCCOCC(=O)O

biological target: T1, PD-1/PD-L1 interaction (PE-labeled human PD-L1-Ig binding to Jurkat cell line over-expressing human PD-1) (Homo sapiens, UniProt Q15116); experiment: Jurkat-PD-1 Cell Binding High-Content Screening Assay (CBA); conditions: Jurkat-hPD-1 cells, PE-labeled PD-L1-Ig 20 nM final; read-out: Jurkat HPD1 PDL1 IC50
T1 construct: expressed in transfected cells; host or cells: Jurkat
T1 sequence (Q15116 25-288): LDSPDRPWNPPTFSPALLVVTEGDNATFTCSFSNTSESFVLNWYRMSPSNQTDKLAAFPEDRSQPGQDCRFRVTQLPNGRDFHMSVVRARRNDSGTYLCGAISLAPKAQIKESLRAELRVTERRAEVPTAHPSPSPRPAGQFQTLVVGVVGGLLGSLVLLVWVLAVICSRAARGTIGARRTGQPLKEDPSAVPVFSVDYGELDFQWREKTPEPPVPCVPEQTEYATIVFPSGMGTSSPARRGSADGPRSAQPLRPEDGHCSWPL
Method in brief: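 Jurkat cells overexpressing human PD-1 (8×10^3/well, DMEM + 10% FCS) preincubated with compound 2 h at 37 °C, then PE-labelled human PD-L1-Ig (20 nM final) for 1 h. Cells fixed in paraformaldehyde with Hoechst 33342; bound PD-L1 quantified by high-content imaging.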

IC50	Compound
30 nM	Cc1cccc(C[C@@H]2NC(=O)[C@H](CC(=O)O)NC(=O)[C@H](Cc3ccc(C(=O)O)cc3)NC(=O)[C@H](Cc3ccc(OCC(=O)O)cc3)NC(=O)CSC[C@@H](C(=O)NCCOCCOCC(=O)NCCCCCCCCCCC(=O)O)NC(=O)[C@H](C(C)O)NC(=O)[C@H](C(C)C)NC(=O)[C@H](CC3CCCCC3)NC(=O)[C@H](CCN)NC(=O)[C@@H](CC(C)C)NC(=O)[C@H](C)N(C)C(=O)[C@H](C(C)C)NC(=O)[C@H](Cc3ccc(-c4ccccc4)cc3)NC(=O)[C@H](CC(C)C)NC2=O)c1 (stereo partly drawn) [Example 2325] ({CH2CO}-Y(Carboxymethyl)[Phe(4-COOH)]D[Phe(3-Me)]L[Bip]V[NMeA][dL][Dab][Cha]V[Thr(3ξ)]C[AEEA][Aun]-OH; thioether N-14)
81.4 nM	CC(C)C[C@H]1NC(=O)[C@H](C)N(C)C(=O)[C@H](Cc2ccc(C(=O)O)cc2)NC(=O)[C@H](Cc2ccc(-c3ccccc3)cc2)NC(=O)[C@H](Cc2ccc(C(=O)O)cc2)NC(=O)[C@H](Cc2cccc(C(F)(F)F)c2)NC(=O)[C@H](CC(=O)O)NC(=O)[C@H](Cc2ccc(OCC(=O)O)cc2)NC(=O)[C@H](Cc2ccc(C(=O)O)cc2)NC(=O)CSC[C@@H](C(=O)N[C@@H](CCN)C(=O)NCCOCCOCC(=O)N[C@@H](CCC(=O)NCCOCCOCC(=O)NCCCCCCCCCCCCC(=O)O)C(=O)O)NC(=O)[C@H](CO)NC(=O)[C@H](C(C)(C)O)NC(=O)[C@H](CC2CCCCC2)NC(=O)[C@H](CCN)NC1=O [Example 1161] ({CH2CO}-[Phe(4-COOH)]Y(Carboxymethyl)D[Phe(3-CF3)][Phe(4-COOH)][Bip][Phe(4-COOH)][NMeA][dL][Dab][Cha][Val(3-OH)]SC[Dab][AEEA][γGlu][AEEA]-{NH(CH2)12COOH}; thioether N-14)
41.2 nM	CC(C)C[C@H]1NC(=O)[C@H](C)N(C)C(=O)[C@H](CCC(N)=O)NC(=O)[C@H](Cc2ccc(-c3ccccc3)cc2)NC(=O)[C@H](Cc2ccc(C(=O)O)cc2)NC(=O)[C@H](Cc2cccc(C(F)(F)F)c2)NC(=O)[C@H](CC(=O)O)NC(=O)[C@H](Cc2ccc(OCC(=O)O)cc2)NC(=O)[C@H](CN2CCOCC2)NC(=O)CSC[C@@H](C(=O)N[C@@H](CCN)C(=O)NCCOCCOCC(=O)N[C@@H](CCC(=O)NCCOCCOCC(=O)NCCCCCCCCCCCCC(=O)O)C(=O)O)NC(=O)[C@H](CC(=O)O)NC(=O)[C@H](C(C)(C)O)NC(=O)[C@H](CC2CCCCC2)NC(=O)[C@H](CCN)NC1=O [Example 1171] ({CH2CO}-[Ala(morpholin-4-yl)]Y(Carboxymethyl)D[Phe(3-CF3)][Phe(4-COOH)][Bip]Q[NMeA][dL][Dab][Cha][Val(3-OH)]DC[Dab][AEEA][γGlu][AEEA]-{NH(CH2)12COOH}; thioether N-14)
21 nM	CC(C)C[C@@H]1NC(=O)[C@H](Cc2c[nH]c3ccccc23)NC(=O)[C@H](CC(=O)O)NC(=O)[C@H](Cc2ccc(OCC(=O)O)cc2)NC(=O)[C@H](Cc2ccc(OCC(=O)O)cc2)NC(=O)CSC[C@@H](C(=O)N[C@@H](CCCCN)C(=O)NCCCCCCCCCCC(=O)O)NC(=O)[C@H](CCCN)NC(=O)[C@H](C(C)C)NC(=O)[C@H](CC2CCCCC2)NC(=O)[C@H](CCN)NC(=O)[C@@H](CC(C)C)NC(=O)[C@H](C)N(C)C(=O)[C@H](C(C)C)NC(=O)[C@H](Cc2ccc(-c3ccccc3)cc2)NC1=O [Example 2157] ({CH2CO}-Y(Carboxymethyl)Y(Carboxymethyl)DWL[Bip]V[NMeA][dL][Dab][Cha]V[Orn]CK[Aun]-OH; thioether N-14)
48.9 nM	CC(C)C[C@@H]1NC(=O)[C@H](Cc2c[nH]c3ccccc23)NC(=O)[C@H](CC(=O)O)NC(=O)[C@H](Cc2ccc(C(=O)O)cc2)NC(=O)[C@H](Cc2ccc(OCC(=O)O)cc2)NC(=O)CSC[C@@H](C(=O)NCCOCCOCC(=O)NCCCCCCCCCCC(=O)O)NC(=O)[C@H](C(C)O)NC(=O)[C@H](C(C)C)NC(=O)[C@H](CC2CCCCC2)NC(=O)[C@H](CCN)NC(=O)[C@@H](CC(C)C)NC(=O)[C@H](C)N(C)C(=O)[C@H](CCC(N)=O)NC(=O)[C@H](Cc2ccc(-c3ccccc3)cc2)NC1=O (stereo partly drawn) [Example 2285] ({CH2CO}-Y(Carboxymethyl)[Phe(4-COOH)]DWL[Bip]Q[NMeA][dL][Dab][Cha]V[Thr(3ξ)]C[AEEA][Aun]-OH; thioether N-14)
23.9 nM	Cc1cccc(C[C@@H]2NC(=O)[C@H](CC(=O)O)NC(=O)[C@H](Cc3ccc(OCC(=O)O)cc3)NC(=O)[C@H](CCN)NC(=O)CSC[C@@H](C(=O)N[C@@H](CCN)C(=O)NCCCCCCCCCCC(=O)O)NC(=O)[C@H](CO)NC(=O)[C@H](C(C)(C)O)NC(=O)[C@H](CC3CCCCC3)NC(=O)[C@H](CCN)NC(=O)[C@@H](CC(C)C)NC(=O)[C@H](C)N(C)C(=O)[C@H](Cc3ccc(OCC(=O)O)cc3)NC(=O)[C@H](Cc3ccc(-c4ccccc4)cc3)NC(=O)[C@H](Cc3cccc(C#N)c3)NC2=O)c1 [Example 1306] ({CH2CO}-[Dab]Y(Carboxymethyl)D[Phe(3-Me)][Phe(3-CN)][Bip]Y(Carboxymethyl)[NMeA][dL][Dab][Cha][Val(3-OH)]SC[Dab][Aun]-OH; thioether N-14)
24.8 nM	Cc1cccc(C[C@@H]2NC(=O)[C@H](CC(=O)O)NC(=O)[C@H](Cc3ccc(OCC(=O)O)cc3)NC(=O)[C@H](CCN)NC(=O)CSC[C@@H](C(=O)N[C@@H](CCN)C(=O)NCCCCCCCCCCC(=O)O)NC(=O)[C@H](CO)NC(=O)[C@H](C(C)(C)O)NC(=O)[C@H](CC3CCCCC3)NC(=O)[C@H](CCN)NC(=O)[C@@H](CC(C)C)NC(=O)[C@H](C)N(C)C(=O)[C@H](Cc3ccc(OCC(=O)O)cc3)NC(=O)[C@H](Cc3ccc(-c4ccccc4)cc3)NC(=O)[C@H](Cc3cccnc3)NC2=O)c1 [Example 1305] ({CH2CO}-[Dab]Y(Carboxymethyl)D[Phe(3-Me)][3Pal][Bip]Y(Carboxymethyl)[NMeA][dL][Dab][Cha][Val(3-OH)]SC[Dab][Aun]-OH; thioether N-14)
91.8 nM	CC(C)C[C@H]1NC(=O)[C@H](C)N(C)C(=O)[C@H](Cc2ccc(C(=O)O)cc2)NC(=O)[C@H](Cc2ccc(-c3ccccc3)cc2)NC(=O)[C@H](Cc2ccc(C(=O)O)cc2)NC(=O)[C@H](Cc2cccc(C(F)(F)F)c2)NC(=O)[C@H](CC(=O)O)NC(=O)[C@H](Cc2ccc(OCC(=O)O)cc2)NC(=O)[C@H](CN2CCOCC2)NC(=O)CSC[C@@H](C(=O)N[C@@H](CCN)C(=O)NCCOCCOCC(=O)N[C@@H](CCC(=O)NCCOCCOCC(=O)NCCCCCCCCCCCCC(=O)O)C(=O)O)NC(=O)[C@H](CO)NC(=O)[C@H](C(C)(C)O)NC(=O)[C@H](CC2CCCCC2)NC(=O)[C@H](CCN)NC1=O [Example 1180] ({CH2CO}-[Ala(morpholin-4-yl)]Y(Carboxymethyl)D[Phe(3-CF3)][Phe(4-COOH)][Bip][Phe(4-COOH)][NMeA][dL][Dab][Cha][Val(3-OH)]SC[Dab][AEEA][γGlu][AEEA]-{NH(CH2)12COOH}; thioether N-14)

same assay, conditions: PE-labeled PD-L1-Ig 20 nM final, Jurkat-hPD-1 cells; read-out: Jurkat HPD1 PDL1 IC50

IC50	Compound
77 nM	CC(=O)NCCCC[C@@H]1NC(=O)[C@H](C(C)(C)O)NC(=O)[C@H](CC2CCCCC2)NC(=O)[C@H](CCN)NC(=O)[C@@H](CC(C)C)NC(=O)[C@H](C)N(C)C(=O)[C@H](CCCNC(N)=O)NC(=O)[C@H](Cc2ccc(-c3ccccc3)cc2)NC(=O)[C@H](Cc2ccc(OCC(=O)O)cc2)NC(=O)[C@H](Cc2cccc(C(F)(F)F)c2)NC(=O)[C@H](CC(=O)O)NC(=O)[C@H](Cc2ccc(OCC(=O)O)cc2)NC(=O)[C@H](Cc2ccc(OCC(=O)O)cc2)NC(=O)CSC[C@@H](C(=O)N[C@@H](CCN)C(=O)NCCCCCCCCCCCCCCC(=O)O)NC1=O [Example 2624] ({CH2CO}-Y(Carboxymethyl)Y(Carboxymethyl)D[Phe(3-CF3)]Y(Carboxymethyl)[Bip][Cit][NMeA][dL][Dab][Cha][Val(3-OH)]K(Ac)C[Dab]-{NH(CH2)14COOH}; thioether N-14)
